Several values for one entry are separate records, joined by “and”; a condition that tells them apart may be missing. Equal values may be shown once.
System: HCMV strain AD 169
Assay: Rabbit HCMV ascending dose efficacy and time course recovery (Example 7)
Settings: for Vitreo-retinal score: sum of both eyes
[1] = day 3, PALA 50 or DHPG 10 mg/kg/d
[2] = day 4, PALA 75 mg/kg/d, with or without steroid
[3] = day 4, PALA 50 or DHPG 10 mg/kg/d
[4] = day 5, PALA 75 mg/kg/d, with or without steroid
[5] = day 5, PALA 50 or DHPG 10 mg/kg/d
[6] = day 6, PALA 75 mg/kg/d, with or without steroid
[7] = day 6, PALA 50 or DHPG 10 mg/kg/d
[8] = day 7, PALA 75 mg/kg/d, with or without steroid
[9] = day 12, PALA 75 mg/kg/d, with or without steroid
[10] = day 12, PALA 50 or DHPG 10 mg/kg/d

O=C(O)C[C@H](NC(=O)CP(=O)(O)O)C(=O)O [PALA]
Optic neuritis score (ONH) (day 3, PALA 100 mg/kg/d): 2.0 and 3.0 | Vitreo-retinal score (day 3, PALA 100 mg/kg/d): 1.0 and 0.75 | HCMV Recovered, OD [1]: + | HCMV Recovered, OS [1]: + | HCMV Titer, OD [1]: 10^3 pfu and 10^4 pfu | HCMV Titer, OS [1]: 10^4 pfu and 10^3 pfu | HCMV recovery frequency [1]: 4/4 | Optic neuritis score (ONH) [1]: 2.0 | Vitreo-retinal score [1]: 1.0 and 1.5 | HCMV Recovered, OD [2]: + | HCMV Recovered, OS [2]: + and - | HCMV Titer, OD [2]: 10^4 pfu | HCMV Titer, OS [2]: 10^3 pfu | HCMV recovery frequency [2]: 3/4 | Optic neuritis score (ONH) [2]: 4.0 and 5.0 | Vitreo-retinal score [2]: 2.75 and 3.5 | Average HCMV titer (day 4, PALA 100 mg/kg/d): 10^3 pfu | HCMV Recovered, OD (day 4, PALA 100 mg/kg/d): + | HCMV Recovered, OS (day 4, PALA 100 mg/kg/d): + | HCMV Titer, OD (day 4, PALA 100 mg/kg/d): 10^5 pfu and 10^3 pfu | HCMV Titer, OS (day 4, PALA 100 mg/kg/d): 10^3 pfu and 10^4 pfu | HCMV recovery frequency (day 4, PALA 100 mg/kg/d): 3/4 | Optic neuritis score (ONH) (day 4, PALA 100 mg/kg/d): 6.0 and 5.0 | Vitreo-retinal score (day 4, PALA 100 mg/kg/d): 4.5 and 3.75 | HCMV Recovered, OD [3]: - and + | HCMV Recovered, OS [3]: - | HCMV Titer, OD [3]: 10^4 pfu | HCMV recovery frequency [3]: 1/4 | Optic neuritis score (ONH) [3]: 2.0 and 3.0 | Average HCMV titer [4]: 10^2 pfu | HCMV Recovered, OD [4]: - | HCMV Recovered, OS [4]: - and + | HCMV Titer, OS [4]: 10^2 pfu | HCMV recovery frequency [4]: 1/4 | Optic neuritis score (ONH) [4]: 3.0 and 5.0 | Vitreo-retinal score [4]: 1.75 and 3.5 | Average HCMV titer (day 5, PALA 100 mg/kg/d): 10^2 pfu | HCMV Recovered, OD (day 5, PALA 100 mg/kg/d): - | HCMV Recovered, OS (day 5, PALA 100 mg/kg/d): + and - | HCMV Titer, OS (day 5, PALA 100 mg/kg/d): 10^2 pfu | HCMV recovery frequency (day 5, PALA 100 mg/kg/d): 1/4 | HCMV titer (day 5, PALA 100 mg/kg/d): 10^2 pfu/ml | Optic neuritis score (ONH) (day 5, PALA 100 mg/kg/d): 5.0 and 4.0 | Vitreo-retinal score (day 5, PALA 100 mg/kg/d): 3.5 and 3.0 | Average HCMV titer [5]: 10^1 pfu | HCMV Recovered, OD [5]: - and + | HCMV Recovered, OS [5]: + and - | HCMV Titer, OD [5]: 10^2 pfu | HCMV Titer, OS [5]: 10^2 pfu | HCMV recovery frequency [5]: 2/4 | Optic neuritis score (ONH) [5]: 1.0 | Vitreo-retinal score [5]: 0.65 and 1.25 | HCMV Titer, OS (day 6, PALA 50 mg/kg/d): 10^3 pfu and 10^2 pfu | HCMV titer (day 6, PALA 50 mg/kg/d): 10^2 pfu/ml | HCMV Recovered, OD [6]: + and - | HCMV Recovered, OS [6]: + and - | HCMV Titer, OD [6]: 10^3 pfu | HCMV Titer, OS [6]: 10^4 pfu | HCMV recovery frequency [6]: 3/4 and 2/4 | Optic neuritis score (ONH) [6]: 2.0 | HCMV Recovered, OD (day 6, PALA 100 mg/kg/d): + | HCMV Recovered, OS (day 6, PALA 100 mg/kg/d): - and + | HCMV Titer, OD (day 6, PALA 100 mg/kg/d): 10^2 pfu | HCMV Titer, OS (day 6, PALA 100 mg/kg/d): 10^3 pfu | HCMV recovery frequency (day 6, PALA 100 mg/kg/d): 3/4 | Optic neuritis score (ONH) (day 6, PALA 100 mg/kg/d): 4.0 | Vitreo-retinal score (day 6, PALA 100 mg/kg/d): 4.0 | Average HCMV titer [7]: 10^2 pfu | HCMV Recovered, OD [7]: + | HCMV Recovered, OS [7]: + | HCMV Titer, OD [7]: 10^2 pfu | HCMV recovery frequency [7]: 4/4 | Optic neuritis score (ONH) [7]: 1.0 and 0.5 | Vitreo-retinal score [7]: 0.75 and 0.6 | Optic neuritis score (ONH) [8]: 0 | Vitreo-retinal score [8]: 5.0 | Optic neuritis score (ONH) (day 7, PALA 100 mg/kg/d): 2.5 and 4.0 | Vitreo-retinal score (day 7, PALA 100 mg/kg/d): 3.25 and 4.25 | Vitreo-retinal score (day 7, PALA 50 or DHPG 10 mg/kg/d): 0.4 | HCMV Recovered, OD [9]: - | HCMV Recovered, OS [9]: - | HCMV Recovered, OD (day 12, PALA 100 mg/kg/d): - | HCMV Recovered, OS (day 12, PALA 100 mg/kg/d): - | HCMV Recovered, OD [10]: - | HCMV Recovered, OS [10]: -
